This is an account of results in US20150307520A1, “NOVEL HETEROARYL AND HETEROCYCLE COMPOUNDS, COMPOSITIONS AND METHODS THEREOF” (HUTCHISON MEDIPHARMA LIMITED, priority 2012, published 2015).

What all share (format): biochemical
One assay concerns the target p110γ (Homo sapiens, UniProt P48736). Briefly: Transcreener KINASE Assay, kinase inhibition of p110γ. The note with it: for PI3Kγ IH % @ 1 uM: 1 uM test compound; for IC50: read-out: PI3Kγ IC50. The method, then: Kinase Inhibition assays of p110α/p85α, p110β/p85α, p110δ/p85α and p110γ PI3K kinases including p110α/p85α, p110δ/p85α and p110γ are purchased from Invitrogen, and p110β/p85α is from Millipore. Primary screening data and IC50 values are measured using Transcreener™ KINASE Assay (Bellbrook, Catalog #3003-10K). […] It is a universal, homogenous, high throughput screening (HTS) technology using a far-red, competitive fluorescence polarization immunoassay based on the detection of ADP to monitor the activity of enzymes that catalyze group transfer reactions. Briefly, the Transcreener KINASE Assay is designed as a simple two-part, endpoint assay. […] The plate is sealed and incubated for 80 min at room temperature. Next, 25 ul ADP detection mix is added per well. The plate is sealed again and incubated for 60 min at room temperature, and then measure fluorescence polarization by Tecan Infinite F500 Reader. Data is analyzed and IC50s are generated using the add-in software for Microsoft Excel, Xlfit™ (version 2.0).

Another assay concerns the target p110β/p85α (Homo sapiens, UniProt P42338). Briefly: Transcreener KINASE Assay, kinase inhibition of p110β/p85α. The conditions noted are these: for PI3Kβ IH % @ 1 uM: 1 uM test compound; for IC50: read-out: PI3Kβ IC50. The method, then: (§1) PI3K kinases including p110α/p85α, p110δ/p85α and p110γ are purchased from Invitrogen, and p110β/p85α is from Millipore.
(§2) Primary screening data and IC50 values are measured using Transcreener™ KINASE Assay (Bellbrook, Catalog #3003-10K). […] It is a universal, homogenous, high throughput screening (HTS) technology using a far-red, competitive fluorescence polarization immunoassay based on the detection of ADP to monitor the activity of enzymes that catalyze group transfer reactions. Briefly, the Transcreener KINASE Assay is designed as a simple two-part, endpoint assay.
(§3) In the first step, the 25 ul kinase reaction is performed by preparing a reaction mixture containing 5 ul test compound (2% DMSO final concentration), 10 ul kinase, buffer (50 mM HEPES, 100 mM NaCl, 1 mM EGTA, 0.03% CHAPS, 3 mM MgCl2, and freshly supplemented 1 mM DTT), and 10 ul 30 uM PIP2/10 uM ATP. The plate is sealed and incubated for 80 min at room temperature. Next, 25 ul ADP detection mix is added per well. The plate is sealed again and incubated for 60 min at room temperature, and then measure fluorescence polarization by Tecan Infinite F500 Reader.
(§4) Data is analyzed and IC50s are generated using the add-in software for Microsoft Excel, Xlfit™ (version 2.0). IH %=(ADP amount under 2% DMSO-ADP amount under test compound)/ADP amount under 2% DMSO.

A further assay deals with p110δ/p85α (Homo sapiens, UniProt O00329). The assay is described as follows: Transcreener KINASE Assay, kinase inhibition of p110δ/p85α. The note with it: for PI3Kδ IH % @ 1 uM: 1 uM test compound; for IC50: read-out: PI3Kδ IC50. On the procedure:
as §1, §2, §3, §4

Sequence of p110δ/p85α (O00329 whole entry): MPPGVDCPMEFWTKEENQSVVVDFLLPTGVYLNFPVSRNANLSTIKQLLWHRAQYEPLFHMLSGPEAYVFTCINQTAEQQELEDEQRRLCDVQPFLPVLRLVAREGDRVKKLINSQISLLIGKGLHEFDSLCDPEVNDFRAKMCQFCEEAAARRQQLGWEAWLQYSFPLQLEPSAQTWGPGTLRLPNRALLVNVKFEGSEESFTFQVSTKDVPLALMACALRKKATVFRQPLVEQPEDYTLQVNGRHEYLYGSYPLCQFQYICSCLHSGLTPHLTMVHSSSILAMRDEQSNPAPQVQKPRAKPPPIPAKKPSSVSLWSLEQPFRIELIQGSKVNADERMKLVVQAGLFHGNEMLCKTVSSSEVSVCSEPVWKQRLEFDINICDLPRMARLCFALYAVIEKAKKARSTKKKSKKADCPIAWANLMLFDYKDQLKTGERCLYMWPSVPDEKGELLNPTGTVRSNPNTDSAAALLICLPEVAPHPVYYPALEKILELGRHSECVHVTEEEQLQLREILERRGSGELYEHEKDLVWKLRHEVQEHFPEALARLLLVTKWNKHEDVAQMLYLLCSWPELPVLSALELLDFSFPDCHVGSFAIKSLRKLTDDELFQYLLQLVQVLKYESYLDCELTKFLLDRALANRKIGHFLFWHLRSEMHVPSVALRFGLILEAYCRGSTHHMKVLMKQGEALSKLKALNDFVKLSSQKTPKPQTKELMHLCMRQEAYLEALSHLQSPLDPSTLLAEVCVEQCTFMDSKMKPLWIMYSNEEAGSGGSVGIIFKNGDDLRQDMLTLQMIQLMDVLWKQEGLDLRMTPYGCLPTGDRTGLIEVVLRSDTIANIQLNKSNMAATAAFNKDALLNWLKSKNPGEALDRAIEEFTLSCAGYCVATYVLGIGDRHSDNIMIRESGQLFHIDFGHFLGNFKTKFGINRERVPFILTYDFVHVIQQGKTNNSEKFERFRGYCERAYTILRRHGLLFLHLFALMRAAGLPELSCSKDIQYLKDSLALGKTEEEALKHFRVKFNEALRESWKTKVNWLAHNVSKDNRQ
Sequence of p110δ/p85α (P27986 whole entry partner): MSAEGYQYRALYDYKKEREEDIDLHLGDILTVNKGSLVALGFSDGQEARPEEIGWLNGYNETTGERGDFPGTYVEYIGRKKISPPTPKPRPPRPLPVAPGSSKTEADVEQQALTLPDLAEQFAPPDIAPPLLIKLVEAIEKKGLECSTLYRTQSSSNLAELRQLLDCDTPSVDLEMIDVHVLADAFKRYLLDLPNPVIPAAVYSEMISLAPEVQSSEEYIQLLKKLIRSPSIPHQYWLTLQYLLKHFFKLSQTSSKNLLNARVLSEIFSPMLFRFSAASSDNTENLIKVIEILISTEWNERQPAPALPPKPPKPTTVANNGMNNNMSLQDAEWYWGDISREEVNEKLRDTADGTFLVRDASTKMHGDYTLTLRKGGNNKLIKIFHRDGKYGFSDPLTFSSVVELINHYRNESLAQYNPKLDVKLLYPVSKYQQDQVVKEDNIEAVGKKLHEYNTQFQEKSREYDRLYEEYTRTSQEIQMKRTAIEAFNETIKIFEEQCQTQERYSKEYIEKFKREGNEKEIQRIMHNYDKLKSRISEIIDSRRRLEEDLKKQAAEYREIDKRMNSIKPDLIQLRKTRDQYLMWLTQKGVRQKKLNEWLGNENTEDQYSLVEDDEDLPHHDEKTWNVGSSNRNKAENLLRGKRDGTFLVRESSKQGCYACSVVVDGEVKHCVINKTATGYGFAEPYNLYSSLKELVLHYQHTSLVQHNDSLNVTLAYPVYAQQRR
Sequence of p110γ (P48736 whole entry): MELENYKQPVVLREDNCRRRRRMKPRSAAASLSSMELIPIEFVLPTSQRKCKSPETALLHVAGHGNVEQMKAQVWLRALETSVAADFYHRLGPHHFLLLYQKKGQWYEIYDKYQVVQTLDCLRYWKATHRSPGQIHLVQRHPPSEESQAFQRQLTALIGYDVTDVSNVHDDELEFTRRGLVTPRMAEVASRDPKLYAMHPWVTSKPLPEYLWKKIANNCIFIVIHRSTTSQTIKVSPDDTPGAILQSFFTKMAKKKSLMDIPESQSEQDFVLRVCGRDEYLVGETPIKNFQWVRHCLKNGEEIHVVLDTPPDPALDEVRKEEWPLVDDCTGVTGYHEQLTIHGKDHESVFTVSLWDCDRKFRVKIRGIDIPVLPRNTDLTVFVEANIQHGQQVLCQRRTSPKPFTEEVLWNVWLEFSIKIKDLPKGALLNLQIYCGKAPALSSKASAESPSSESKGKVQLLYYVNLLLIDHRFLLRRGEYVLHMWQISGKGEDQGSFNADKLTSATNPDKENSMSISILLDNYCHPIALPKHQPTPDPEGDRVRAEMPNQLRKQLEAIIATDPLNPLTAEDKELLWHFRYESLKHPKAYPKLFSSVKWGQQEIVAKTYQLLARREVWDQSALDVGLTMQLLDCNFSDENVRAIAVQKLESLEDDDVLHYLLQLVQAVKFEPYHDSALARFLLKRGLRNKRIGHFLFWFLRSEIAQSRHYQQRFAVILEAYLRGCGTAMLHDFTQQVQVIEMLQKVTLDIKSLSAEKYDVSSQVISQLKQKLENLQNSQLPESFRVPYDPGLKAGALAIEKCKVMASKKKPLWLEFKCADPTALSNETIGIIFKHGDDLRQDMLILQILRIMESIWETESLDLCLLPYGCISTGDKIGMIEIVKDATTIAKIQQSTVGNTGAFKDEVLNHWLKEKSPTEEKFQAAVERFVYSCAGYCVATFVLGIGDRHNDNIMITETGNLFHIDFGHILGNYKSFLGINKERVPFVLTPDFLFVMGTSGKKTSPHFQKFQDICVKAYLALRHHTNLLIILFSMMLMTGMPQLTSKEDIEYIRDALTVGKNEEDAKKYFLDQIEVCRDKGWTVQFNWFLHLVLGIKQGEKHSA
Sequence of p110β/p85α (P42338 whole entry): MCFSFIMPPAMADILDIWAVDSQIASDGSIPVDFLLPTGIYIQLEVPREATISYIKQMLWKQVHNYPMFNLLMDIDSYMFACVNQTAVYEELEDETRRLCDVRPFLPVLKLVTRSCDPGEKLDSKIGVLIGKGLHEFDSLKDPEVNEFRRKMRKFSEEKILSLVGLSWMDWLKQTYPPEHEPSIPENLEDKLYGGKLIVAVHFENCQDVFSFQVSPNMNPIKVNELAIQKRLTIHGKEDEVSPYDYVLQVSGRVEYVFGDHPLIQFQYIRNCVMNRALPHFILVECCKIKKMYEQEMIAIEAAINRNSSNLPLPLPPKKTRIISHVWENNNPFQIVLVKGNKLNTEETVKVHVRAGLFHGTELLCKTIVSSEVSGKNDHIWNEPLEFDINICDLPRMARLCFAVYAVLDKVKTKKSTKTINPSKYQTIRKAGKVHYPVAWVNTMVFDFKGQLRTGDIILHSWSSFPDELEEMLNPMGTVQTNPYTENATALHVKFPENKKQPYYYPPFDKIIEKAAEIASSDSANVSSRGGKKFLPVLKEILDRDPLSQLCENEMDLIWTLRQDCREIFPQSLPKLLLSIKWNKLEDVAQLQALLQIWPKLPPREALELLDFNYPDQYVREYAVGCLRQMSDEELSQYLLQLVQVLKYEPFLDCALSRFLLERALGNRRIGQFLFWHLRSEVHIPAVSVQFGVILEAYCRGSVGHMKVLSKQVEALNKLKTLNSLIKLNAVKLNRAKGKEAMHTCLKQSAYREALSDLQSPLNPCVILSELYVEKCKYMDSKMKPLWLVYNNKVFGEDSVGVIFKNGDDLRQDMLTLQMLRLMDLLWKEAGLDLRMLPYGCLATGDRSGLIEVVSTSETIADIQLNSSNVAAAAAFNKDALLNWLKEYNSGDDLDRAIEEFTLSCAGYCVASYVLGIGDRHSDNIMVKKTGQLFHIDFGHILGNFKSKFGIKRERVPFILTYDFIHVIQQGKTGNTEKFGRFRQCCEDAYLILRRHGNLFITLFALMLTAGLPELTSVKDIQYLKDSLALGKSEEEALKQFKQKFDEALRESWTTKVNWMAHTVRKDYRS
Sequence of p110β/p85α (P27986 2-724 partner): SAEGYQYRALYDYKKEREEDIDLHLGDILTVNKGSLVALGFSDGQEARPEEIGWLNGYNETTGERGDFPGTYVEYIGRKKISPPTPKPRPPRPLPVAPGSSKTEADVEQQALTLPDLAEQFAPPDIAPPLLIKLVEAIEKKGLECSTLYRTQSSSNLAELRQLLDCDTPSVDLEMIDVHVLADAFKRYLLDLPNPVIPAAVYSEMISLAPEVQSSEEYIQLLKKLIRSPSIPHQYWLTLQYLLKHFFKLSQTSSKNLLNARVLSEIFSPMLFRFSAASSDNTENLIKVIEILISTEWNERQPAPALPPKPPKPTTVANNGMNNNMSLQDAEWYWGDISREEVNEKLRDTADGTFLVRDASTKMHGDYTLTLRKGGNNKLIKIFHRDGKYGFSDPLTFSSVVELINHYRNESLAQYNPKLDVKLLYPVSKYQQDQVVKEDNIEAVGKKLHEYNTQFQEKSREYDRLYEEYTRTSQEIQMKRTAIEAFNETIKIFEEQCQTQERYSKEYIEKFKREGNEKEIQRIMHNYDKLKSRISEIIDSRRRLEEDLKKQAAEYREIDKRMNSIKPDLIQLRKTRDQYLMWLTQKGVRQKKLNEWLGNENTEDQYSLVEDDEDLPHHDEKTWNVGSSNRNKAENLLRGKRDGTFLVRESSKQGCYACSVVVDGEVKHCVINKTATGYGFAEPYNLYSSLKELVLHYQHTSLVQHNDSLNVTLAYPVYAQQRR

The term IC50 denotes the point on the concentration scale where inhibition reaches its midpoint. For `CC(Nc1ncnc2[nH]cc(C#N)c12)c1cn2ccc(Cl)c2c(=O)n1-c1cccc(F)c1` (stereo not shown) [Compound 76], the “PI3Kγ IH % @ 1 uM” value on p110γ stood at 93.9%. For the same compound, on p110β/p85α, the “PI3Kβ IH % @ 1 uM” value amounted to 82.0% and the IC50 is 104 nM. In addition, the “PI3Kδ IH % @ 1 uM” value on p110δ/p85α was 98.8%.
On to `CC(Nc1ncnc2[nH]cnc12)c1cn2ccc(Cl)c2c(=O)n1-c1ccc(F)cc1` (stereo not shown) [Compound 78], for which the “PI3Kγ IH % @ 1 uM” value on p110γ was determined as 91.2%. The “PI3Kβ IH % @ 1 uM” value on p110β/p85α came to 92.4%. Moreover, at p110δ/p85α, the “PI3Kδ IH % @ 1 uM” value amounted to 98.2%.
Taken in the same sequence, the figures for `CC(Nc1ncnc(N)c1C#N)c1cn2ccc(Cl)c2c(=O)n1-c1ccc(F)cc1` (stereo not shown) [Compound 79] were 91.6%, 96.3% and 99.0%.
On to `CC(Nc1ncnc2[nH]cnc12)c1cn2ccc(Cl)c2c(=O)n1-c1cc(F)cc(F)c1` (stereo not shown) [Compound 80], for which, on p110γ, the “PI3Kγ IH % @ 1 uM” value is 83.5%. For the same compound, the “PI3Kβ IH % @ 1 uM” value on p110β/p85α is 58.9%. Besides, the “PI3Kδ IH % @ 1 uM” value at p110δ/p85α is listed as over 100%.
Regarding `CC(Nc1ncnc(N)c1C#N)c1cn2ccc(Cl)c2c(=O)n1-c1cc(F)cc(F)c1` (stereo not shown) [Compound 81], the “PI3Kγ IH % @ 1 uM” value on p110γ stood at 87.9%. For the same compound, at p110β/p85α, the “PI3Kβ IH % @ 1 uM” value turned out to be 79.0% and the IC50 was 217 nM. The “PI3Kδ IH % @ 1 uM” value at p110δ/p85α is on record as over 100%.
With `CC(Nc1ncnc2[nH]cc(C#N)c12)c1cn2cccc2c(=O)n1-c1ccccc1` (stereo not shown) [Compound 82], on p110γ, the “PI3Kγ IH % @ 1 uM” value worked out at 78.6% and the IC50 was determined as 194 nM. The “PI3Kβ IH % @ 1 uM” value at p110β/p85α is reported as 56.4%. Also, the “PI3Kδ IH % @ 1 uM” value at p110δ/p85α came out at 98.7%.
On the same counts, the results for `CC(Nc1ncnc2[nH]cnc12)c1cn2cccc2c(=O)n1-c1ccccc1` (stereo not shown) [Compound 83] are 78.6%, 309 nM, 42.7% and 97.3%.
Regarding `CC(Nc1ncnc2[nH]cc(C#N)c12)c1cn2ccc(Cl)c2c(=O)n1-c1ccccc1` (stereo not shown) [Compound 88], at p110γ, the “PI3Kγ IH % @ 1 uM” value was determined as 98.0% and the IC50 worked out at 14 nM. On p110β/p85α, the “PI3Kβ IH % @ 1 uM” value stood at 94.7% and the IC50 was 58 nM. Moreover, the “PI3Kδ IH % @ 1 uM” value on p110δ/p85α is reported as 93.2%.
Consider `CC(Nc1ncnc(N)c1C#N)c1cn2ccc(Cl)c2c(=O)n1-c1ccccc1` (stereo not shown) [Compound 89], for which the “PI3Kγ IH % @ 1 uM” value on p110γ came out at 94.8%. On p110β/p85α, the “PI3Kβ IH % @ 1 uM” value worked out at 96.1% and the half-maximal inhibitory concentration (IC50) was 17 nM. Also, at p110δ/p85α, the “PI3Kδ IH % @ 1 uM” value was over 100%.
With `Cc1ccn2cc(C(C)Nc3ncnc(N)c3C#N)n(-c3ccccc3)c(=O)c12` (stereo not shown) [Compound 90, 4-amino-6-(1-(8-methyl-1-oxo-2-phenyl-1,2-dihydropyrrolo[1,2-a]pyrazin-3-yl)ethylamino)pyrimidine-5-carbonitrile], at p110γ, the “PI3Kγ IH % @ 1 uM” value is listed as 95.7% and the IC50 was found to be 34 nM. At p110β/p85α, the “PI3Kβ IH % @ 1 uM” value amounted to 93.1% and the IC50 amounted to 24 nM. The “PI3Kδ IH % @ 1 uM” value at p110δ/p85α is recorded as over 100%.
For the compound `CC(Nc1ncnc2[nH]cnc12)c1cn2ccc(-c3cnn(C)c3)c2c(=O)n1-c1ccccc1` (stereo not shown) [Compound 93, 3-(1-(9H-purin-6-ylamino)ethyl)-8-(1-methyl-1H-pyrazol-4-yl)-2-phenylpyrrolo[1,2-a]pyrazin-1(2H)-one], the “PI3Kγ IH % @ 1 uM” value at p110γ came out at 53.7%. For the same compound, at p110β/p85α, the “PI3Kβ IH % @ 1 uM” value was determined as 5.4%. Further, at p110δ/p85α, the “PI3Kδ IH % @ 1 uM” value turned out to be 77.6% and the IC50 stood at 244 nM.
For the compound `NC(=O)c1c[nH]c2ncnc(N3CCC[C@H]3c3nn4ccc(Cl)c4c(=O)n3-c3ccccc3)c12` [Compound 95], on p110γ, the “PI3Kγ IH % @ 1 uM” value is given as over 100% and the IC50 is 7 nM. Further, at p110β/p85α, the “PI3Kβ IH % @ 1 uM” value stood at 82.0% and the IC50 was determined as 36 nM. Moreover, at p110δ/p85α, the “PI3Kδ IH % @ 1 uM” value stood at 97.6% and the IC50 stood at 1 nM.
